Measured values taken from US9353061B2, “3,5,N-trihydroxy-alkanamide and derivatives: method for making same and use thereof” (Academia Sinica, priority 2012, dated 2016).
Where “and” joins values, the source holds several entries; their conditions need not be identical. Identical values can stand only once. Like-named read-outs stand apart in the source and are kept apart here.

Columns and labels:
HMG-CoA reductase (HMGR) = HMG-CoA reductase (HMGR) (Homo sapiens (Human), UniProt P04035); assay: HMG-CoA reductase activity assay (NADPH consumption, Sigma kit); type: biochemical; settings: for HMGR inhibition (in words): enzyme-based; for IC50: human recombinant protein
HMG-CoA reductase (HMGR), sequence (P04035 426-888): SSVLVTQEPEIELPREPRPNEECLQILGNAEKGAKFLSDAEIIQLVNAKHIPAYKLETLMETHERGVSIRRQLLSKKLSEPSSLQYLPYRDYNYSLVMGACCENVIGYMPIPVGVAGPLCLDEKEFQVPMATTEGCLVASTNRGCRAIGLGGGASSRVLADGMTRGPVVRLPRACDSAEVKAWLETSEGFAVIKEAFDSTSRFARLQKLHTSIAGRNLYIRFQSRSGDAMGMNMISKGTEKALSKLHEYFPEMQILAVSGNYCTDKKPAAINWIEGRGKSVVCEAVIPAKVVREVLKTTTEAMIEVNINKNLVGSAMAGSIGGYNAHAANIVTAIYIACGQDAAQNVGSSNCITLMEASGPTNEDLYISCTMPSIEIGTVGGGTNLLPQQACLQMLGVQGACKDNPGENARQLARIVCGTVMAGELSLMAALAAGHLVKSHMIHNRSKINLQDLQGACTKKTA
Protocol: (§1) The HMGR activity was performed using HMG-CoA reductase assay kit from Sigma-Aldrich with the human recombinant protein or 100 μg total cell lysates from A549 cells. […] HMGR activity under defined assay conditions, containing NADPH and HMG-CoA substrate in a final volume of 0.2 mL of 100 mM potassium phosphatate buffer (120 mM KCl, 1 mM EDTA, 5 mM DTT, pH 7.4), were initiated in the presence or absence (control) of test compounds dissolved in dimethylsulfoxide (DMSO). The rates of NADPH consumption were monitored every 20 seconds, for up to 10 minutes, by spectrophotometer at 37° C. and 340 nm. The HMGR activity was calculated as a percentage of activity compared with the control group at 5 min. The IC50 values were calculated from software SigmaPlot.
(§2) HDAC fluorometric activity assay was performed using Fluor-de-Lys as the substrate (BIOMOL, Plymouth Meeting, Pa., USA), and HMGR inhibition was evaluated by the […].

HDAC1 = HDAC1 (Homo sapiens (Human), UniProt Q13547); assay: HDAC fluorimetric activity assay (Fluor-de-Lys); type: biochemical; settings: recombinant HDAC1
HDAC1, sequence (Q13547 whole entry): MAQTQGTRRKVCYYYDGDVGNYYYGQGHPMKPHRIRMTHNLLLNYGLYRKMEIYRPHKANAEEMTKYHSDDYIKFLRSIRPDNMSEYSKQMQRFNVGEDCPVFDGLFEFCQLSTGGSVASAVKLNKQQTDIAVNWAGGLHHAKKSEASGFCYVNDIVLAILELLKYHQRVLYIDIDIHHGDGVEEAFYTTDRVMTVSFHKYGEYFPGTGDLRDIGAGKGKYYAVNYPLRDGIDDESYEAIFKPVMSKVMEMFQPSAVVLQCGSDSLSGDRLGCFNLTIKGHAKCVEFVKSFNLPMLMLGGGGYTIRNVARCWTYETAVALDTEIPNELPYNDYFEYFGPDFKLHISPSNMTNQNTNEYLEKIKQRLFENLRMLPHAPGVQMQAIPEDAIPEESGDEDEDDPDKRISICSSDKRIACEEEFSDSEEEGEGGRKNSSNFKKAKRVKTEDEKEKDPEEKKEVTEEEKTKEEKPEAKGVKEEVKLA
Protocol: (§3) The HDAC activity was performed using the HDAC fluorescent activity assay kit (BIOMOL, Plymouth Meeting, Pa., USA) according to the manufacturer's instructions. Briefly, recombinant proteins of HDAC1 or HDAC6 were incubated with test compounds, and HDAC reaction was initiated by addition of Fluor-de-Lys substrate. Samples were incubated for 10 min at room temperature, followed by adding developer to stop the reaction. Fluorescence was measured by fluorometric reader with excitation at 360 nm and emission at 460 nm. The HDAC activity was expressed as arbitrary fluorescence units (AFU). The HDAC activity was calculated as a percentage of activity compared with the control group. The half maximal inhibitory concentration (IC50) values for the test compounds were calculated from software SigmaPlot.
as §2

HDAC6 = HDAC6 (Homo sapiens (Human), UniProt Q9UBN7); assay: HDAC fluorimetric activity assay (Fluor-de-Lys); type: biochemical; settings: recombinant HDAC6
HDAC6, sequence (Q9UBN7 whole entry): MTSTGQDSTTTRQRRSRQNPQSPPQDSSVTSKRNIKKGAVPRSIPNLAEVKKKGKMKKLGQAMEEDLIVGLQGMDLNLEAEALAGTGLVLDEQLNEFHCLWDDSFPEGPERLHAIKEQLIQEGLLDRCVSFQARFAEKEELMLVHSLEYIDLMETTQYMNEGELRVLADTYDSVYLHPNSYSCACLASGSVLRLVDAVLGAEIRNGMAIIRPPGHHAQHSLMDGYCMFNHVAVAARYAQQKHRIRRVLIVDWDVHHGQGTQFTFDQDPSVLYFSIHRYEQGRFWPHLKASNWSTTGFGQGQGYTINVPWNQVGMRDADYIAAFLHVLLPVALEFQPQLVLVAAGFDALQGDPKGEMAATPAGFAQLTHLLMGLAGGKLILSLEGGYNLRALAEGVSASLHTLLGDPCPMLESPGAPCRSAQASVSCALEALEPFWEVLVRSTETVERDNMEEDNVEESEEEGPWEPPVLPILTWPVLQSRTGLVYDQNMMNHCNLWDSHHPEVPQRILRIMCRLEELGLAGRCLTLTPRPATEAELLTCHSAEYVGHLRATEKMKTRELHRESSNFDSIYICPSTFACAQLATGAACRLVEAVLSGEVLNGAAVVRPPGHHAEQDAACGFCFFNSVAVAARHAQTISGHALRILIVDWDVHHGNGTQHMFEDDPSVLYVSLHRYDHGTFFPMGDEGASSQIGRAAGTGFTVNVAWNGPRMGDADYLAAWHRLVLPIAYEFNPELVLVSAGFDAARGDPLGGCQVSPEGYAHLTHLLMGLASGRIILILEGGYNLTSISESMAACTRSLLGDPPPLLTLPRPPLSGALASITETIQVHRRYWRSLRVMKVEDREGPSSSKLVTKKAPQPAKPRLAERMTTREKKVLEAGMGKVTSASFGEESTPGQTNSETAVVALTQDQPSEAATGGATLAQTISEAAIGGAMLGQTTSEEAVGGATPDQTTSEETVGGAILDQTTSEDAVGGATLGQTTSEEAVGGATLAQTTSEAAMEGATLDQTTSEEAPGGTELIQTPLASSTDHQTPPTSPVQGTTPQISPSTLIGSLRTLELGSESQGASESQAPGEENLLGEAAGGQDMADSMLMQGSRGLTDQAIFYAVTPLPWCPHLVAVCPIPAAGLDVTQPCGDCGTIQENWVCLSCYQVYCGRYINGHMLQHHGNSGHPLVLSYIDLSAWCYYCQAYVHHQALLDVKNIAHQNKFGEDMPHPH
Protocol: as §3, §2

HDAC2 = HDAC2 (Homo sapiens (Human), UniProt Q92769); assay: HDAC fluorimetric activity assay (Fluor-de-Lys); type: biochemical
HDAC2, sequence (Q92769 whole entry): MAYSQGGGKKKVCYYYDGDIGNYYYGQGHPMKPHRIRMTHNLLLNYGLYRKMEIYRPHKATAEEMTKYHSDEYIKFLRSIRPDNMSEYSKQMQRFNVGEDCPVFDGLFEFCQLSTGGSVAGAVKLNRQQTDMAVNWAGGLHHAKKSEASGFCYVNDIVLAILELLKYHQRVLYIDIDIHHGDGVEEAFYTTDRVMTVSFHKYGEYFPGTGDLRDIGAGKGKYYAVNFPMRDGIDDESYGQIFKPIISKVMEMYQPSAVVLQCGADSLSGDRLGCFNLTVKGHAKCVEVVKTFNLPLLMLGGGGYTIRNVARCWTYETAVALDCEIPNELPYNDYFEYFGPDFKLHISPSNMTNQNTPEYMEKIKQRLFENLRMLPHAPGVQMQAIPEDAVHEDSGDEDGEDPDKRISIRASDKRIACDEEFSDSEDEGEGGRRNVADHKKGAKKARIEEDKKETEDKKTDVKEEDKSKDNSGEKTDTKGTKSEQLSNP

[1] = system: MEF normal mouse fibroblast cells; assay: cells; type: cell-based; settings: for cytotoxicity on MEF normal cells (in words) / IC50: 72 h; for cytotoxicity on MEF normal cells (in words): MTT, FIG. 4C/4D; for toxicity to normal cells at 100 μM: MEF; for IC50: MTT assay; for SI A549/MEF (selectivity index): ratio of IC50 values, cancer cell and normal cell
Protocol: (§4) The cell viability was measured by MTT assay.
(§5) A549 human lung carcinoma cells from American Type Culture Collection (ATCC) were cultured in Dulbecco's Modified Eagle Medium (DMEM). […] All mediums were supplemented with 10% fetal bovine serum (FBS), 100 U/mL penicillin G and 100 mg/mL streptomycin sulfate. Cells were maintained in a humidified incubator containing 5% CO2 in air. Cells were subcultured by trypsinization in laminar flow when grew about 80% in the culture dishes.
(§6) A549 cells were seeded at 3000 cells/well in 96-well plates and maintained for 14-16 hours. Cells were treated with dimethylsulfoxide DMSO or test compounds in varied concentrations for 72 h. Cells were then washed with PBS twice, added a medium containing 3-(4,5-dimethylthiazol-2-yl)-2,5-diphenyltetrazolium bromide (MTT) at a final concentration of 0.5 mg/mL, and incubated for 4 h at 37° C. in a humidified incubator containing 5% CO2 in air. Cells having functional succinate dehydrogenase of mitochondria would convert MTT to formazan. Then, the medium was replaced with 100 μL of DMSO for 30 min at room temperature, and the 96-well plate was read by an ELISA reader at 550 nm to get the absorbance density values. The IC50 values of death cell lines were calculated accordingly.

[2] = system: HS68 normal human fibroblast cells; assay: cells; type: cell-based; settings: for cytotoxicity on HS68 normal cells (in words) / IC50: 72 h; for cytotoxicity on HS68 normal cells (in words): MTT, FIG. 4B/4D; for toxicity to normal cells at 100 μM: HS68, 100 μM; for IC50: MTT assay
Protocol: as §4, §5, §6

[3] = system: acetyl-histone H3 and acetyl-tubulin in A549 lung cancer cells; assay: Western blot of acetyl-histone H3 and acetyl-tubulin; type: cell-based, human; settings: dose-dependent, FIG. 2
Protocol: FIG. 2 is a photo showing the effect of test compounds on acetylation of histone H3 and tubulin in A549 lung cancer cell lines. […] A549 cells were treated with the indicated doses of test compounds. Total cell lysates were prepared and subjected to SDS-PAGE using adequate percentage of polyacrylamide gels. Immunoblotting was performed using specific antibodies to evaluate the expression of different proteins.
Following treatment with test compounds, cells were lysed on ice. Total cell lysates were centrifuged at 13,000 rpm for 15 min at 4° C., and then subjected to SDS-PAGE using adequate percentage polyacrylamide gels. Immunoblotting was performed using specific antibodies to evaluate the expression of different proteins.
A549 lung cancer cells were treated with the test compound, and the expression of acetyl-histone H3 and acetyl-tubulin were analyzed by SDS-PAGE using immunoblotting.

[4] = biological target: HMG-CoA reductase in A549 lung cancer cells (Homo sapiens (Human), UniProt P04035); assay: Cell-based assay of HMGR inhibition (cell lysates); settings: A549 cells treated 24 hours, FIG. 3
HMG-CoA reductase in A549 lung cancer cells, sequence (P04035 whole entry): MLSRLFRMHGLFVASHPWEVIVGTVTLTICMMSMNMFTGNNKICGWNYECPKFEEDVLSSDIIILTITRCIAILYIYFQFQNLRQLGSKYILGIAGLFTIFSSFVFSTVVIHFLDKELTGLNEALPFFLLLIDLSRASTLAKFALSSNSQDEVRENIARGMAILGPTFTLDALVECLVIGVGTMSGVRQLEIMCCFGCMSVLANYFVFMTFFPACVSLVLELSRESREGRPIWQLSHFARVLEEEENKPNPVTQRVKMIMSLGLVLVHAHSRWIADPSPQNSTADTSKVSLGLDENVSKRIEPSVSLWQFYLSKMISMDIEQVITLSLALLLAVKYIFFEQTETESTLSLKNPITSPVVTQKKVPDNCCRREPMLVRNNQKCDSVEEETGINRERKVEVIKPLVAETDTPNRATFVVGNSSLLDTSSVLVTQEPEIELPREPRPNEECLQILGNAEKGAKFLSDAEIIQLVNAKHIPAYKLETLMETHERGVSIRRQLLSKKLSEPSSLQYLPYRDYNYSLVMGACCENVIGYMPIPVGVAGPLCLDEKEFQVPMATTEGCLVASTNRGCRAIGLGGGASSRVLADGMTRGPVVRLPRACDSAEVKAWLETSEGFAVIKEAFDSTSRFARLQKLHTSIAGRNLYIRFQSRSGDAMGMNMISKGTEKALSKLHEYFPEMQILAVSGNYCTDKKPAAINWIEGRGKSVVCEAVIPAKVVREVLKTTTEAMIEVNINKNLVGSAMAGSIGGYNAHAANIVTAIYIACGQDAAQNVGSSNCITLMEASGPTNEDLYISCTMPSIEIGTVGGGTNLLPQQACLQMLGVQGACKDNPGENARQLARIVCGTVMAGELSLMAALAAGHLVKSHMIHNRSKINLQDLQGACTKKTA
Protocol: as §1

[5] = system: A549 human lung cancer cells; assay: Cell proliferation (MTT) assay, cancer cells; settings: for cell viability of A549 (in words): MTT, FIG. 4A/4D
Protocol: as §4, §5, §6

[6] = system: AOM/DSS-induced colitis-associated colorectal cancer; assay: AOM/DSS colitis-associated colorectal cancer model, treatment after AOM/DSS; settings: for AOM/DSS-induced weight loss / clinical symptoms: oral 100 mg/kg, 5 days a week for 3 weeks after AOM/DSS; for histological examination of colon: treatment after AOM/DSS
Protocol: Lova-HA and Atorva-HA were dissolved in corn oil. Lova-HA (100 mg/kg), Atorva-HA (100 mg/kg) or the vehicle (corn oil) was orally administered after AOM/DSS treatment 5 days a week for 3 weeks. All mice were sacrificed after 12 weeks and colon segments were fixed in formalin.
To further investigate whether Lova-HA and Atorva-HA can treat cancer, a C57/BL6 mouse model of colitis-associated CRC was performed after the AOM and 3 cycles of DSS treatment. […] The formation of polyps and colonic tumors were macroscopically observed and counted.

[7] = system: AOM/DSS-induced colitis-associated colorectal cancer; assay: AOM/DSS colitis-associated colorectal cancer model, chemoprevention
From the text: All mice were sacrificed at 9 weeks and colon segments were fixed by formalin.
Male C57BL6 mice obtained at 4-5 weeks of age were divided into four groups. […] All mice were sacrificed after 9 weeks and colon segments were fixed in formalin. H&E stain colonic sections were examined for colonic aberrant crypts.
The formation of polyps and colonic tumors were macroscopically observed and counted.

[8] = Homo sapiens, A549, 72 h, read-out: IC50 (μM) A549, 72 h, MTT assay

SMILES	HMGR inhibition (in words) (HMG-CoA reductase (HMGR))	IC50 (HMG-CoA reductase (HMGR))	IC50 (HDAC1)	IC50 (HDAC6)	IC50 (HDAC2)	cytotoxicity on MEF normal cells (in words) [1]	toxicity to normal cells at 100 μM [1]	IC50 ([1]; Mus musculus, Fibroblast)	SI A549/MEF (selectivity index) [1]	cytotoxicity on HS68 normal cells (in words) [2]	toxicity to normal cells at 100 μM [2]	IC50 ([2]; Homo sapiens, Hs68)	IC50 [5, 8]	AOM/DSS-induced weight loss [6]	clinical symptoms [6]	histological examination of colon [6]	also measured
CC(C)c1c(C(=O)Nc2ccccc2)c(-c2ccccc2)c(-c2ccc(F)cc2)n1CC[C@@H](O)C[C@@H](O)CC(=O)NO [Atorva-HA, (3R,5R)-7-[2-(4-Fluoro-phenyl)-5-isopropyl-3-phenyl-4-phenylcarbamoylpyrrol-1-yl]-3,5-dihydroxy-N-hydroxyheptanamide]	potent HMGR inhibition	9.2 nM	117 nM	83.7 nM	467 ± 19 nM	did not have cytotoxicity	not toxic	> 100 µM	>5.7	did not have cytotoxicity	not toxic	> 100 µM	< 20 µM	could protect the weight loss	attenuated	surface tumor necrosis	acetylation of histone H3 and tubulin [3]: promoted the acetylations of histone and tubulin; HMGR inhibition in cell lysates compared with lovastatin [4]: equal or even better activity than lovastatin; cell viability of A549 (in words) ([5]; 72 h): reduced; IC50 ([5]; read-out: IC50 (μM) A549, 72 h, MTT assay, listed as Atorva-HA (5)): 17.5 ± 4.7 µM; number and size of tumors ([6]; 100 mg/kg oral): markedly reduced the number and size of tumors
CC(C)c1nc(N(C)S(C)(=O)=O)nc(-c2ccc(F)cc2)c1/C=C/[C@@H](O)C[C@@H](O)CC(=O)NO [Rosuva-HA, (3R,5S,6E)-7-[4-(4-fluorophenyl)-2-(N-methylmethanesulfonamido)-6-isopropylpyrimidin-5-yl]-3,5-dihydroxy-N-hydroxy-6-heptenamide]	potent HMGR inhibition	43.7 ± 1.6 nM	125 ± 7.1 nM	133 ± 5.5 nM	400 to 630 nM and 600 nM	–	–	–	–	–	–	–	–	–	–	–	acetylation of histone H3 and tubulin [3]: promoted the acetylations of histone and tubulin
CCC(C)C(=O)O[C@H]1C[C@@H](C)C=C2C=C[C@H](C)[C@H](CC[C@@H](O)C[C@@H](O)CC(=O)NO)[C@H]21 (some centres unmarked) [Lova-HA]	–	16.8 ± 1.9 nM	60.1 ± 5.3 nM	50.5 ± 4 nM	468 ± 27.2 nM	did not have cytotoxicity	not toxic	> 100 µM	>5.6	did not have cytotoxicity	not toxic	> 100 µM	< 20 µM	–	–	–	IC50 ([5]; read-out: IC50 (μM) A549, 72 h, MTT assay, listed as Lova-HA (1)): 18.2 ± 3.4 µM; colon length ([7]; 25 mg/kg oral): 8.6±0.4 cm; colon length ([7]; 50 mg/kg oral): 10.1±0.9 cm
CCC(C)(C)C(=O)O[C@H]1C[C@@H](C)C=C2C=C[C@H](C)[C@H](CC[C@@H](O)C[C@@H](O)CC(=O)NO)[C@H]21 [Simva-HA, (3R,5R)-7-{(1S,2S,6R,8S,8aR)-Hexahydro-2,6-dimethyl-8-[2-dimethylbutyryloxy]naphthalenyl}-3,5-dihydroxy-N-hydroxyheptanamide]	–	11.4 nM	60.7 ± 3.2 nM	67.1 nM	400 to 630 nM	did not have cytotoxicity	not toxic	> 100 µM	>5.0	did not have cytotoxicity	not toxic	> 100 µM	< 20 µM	–	–	–	IC50 ([5]; read-out: IC50 (μM) A549, 72 h, MTT assay, listed as Simva-HA (2)): 20 ± 3.1 µM
O=C(CCCCCCC(=O)Nc1ccccc1)NO [SAHA, suberoylanalide hydroxamic acid, reference compound]	no significant inhibition	> 10000 nM	–	–	–	toxic to normal cells	–	–	–	toxic to normal cells	–	–	–	could not protect	attenuated	surface tumor necrosis	cell viability of A549 (in words) ([5]; 72 h): killed cancer cells
CC[C@H](C)C(=O)O[C@H]1C[C@@H](C)C=C2C=C[C@H](C)[C@H](CC[C@@H]3C[C@@H](O)CC(=O)O3)[C@H]21 [Lovastatin, lovastatin]	–	–	–	–	–	–	–	–	–	–	–	–	–	could not protect	not reversed	adenocarcinomas with dysplasia	IC50 [1]: 35 ± 5.9 µM; IC50 [2]: 23.2 ± 3.5 µM; colon length ([7]; 50 mg/kg oral): 8.0±0.9 cm; histological examination of colon ([7]; 50 mg/kg oral): adenocarcinomas with dysplasia; bleeding and diarrhea (clinical symptoms) ([7]; oral, Lova-HA 25 or 50 mg/kg, lovastatin 50 mg/kg): not reversed; body weight loss after AOM/DSS ([7]; oral, Lova-HA 25 or 50 mg/kg, lovastatin 50 mg/kg, 5 days a week for 8 weeks): but not lovastatin could protect the weight loss
CC(C)c1c(C(=O)Nc2ccccc2)c(-c2ccccc2)c(-c2ccc(F)cc2)n1CC[C@@H](O)C[C@@H](O)CC(=O)O [Atorvastatin, atorvastatin]	–	–	–	–	–	–	–	30.7 ± 3.2 µM	–	–	–	–	–	could not protect	not reversed	adenocarcinomas with dysplasia	–
CCC(C)(C)C(=O)O[C@H]1C[C@@H](C)C=C2C=C[C@H](C)[C@H](CC[C@@H]3C[C@@H](O)CC(=O)O3)[C@H]21 [simvastatin, reference compound]	–	–	–	–	–	–	–	36.7 ± 4.4 µM	2.3	–	–	26.4 ± 2.1 µM	–	–	–	–	IC50 ([5]; Homo sapiens, A549, 72 h, read-out: IC50 (μM) A549): 16.3 ± 0.1 µM
